Earlier results in US20050123607A1, “Pharmaceutical formulation of valaciclovir” (priority 2003, published 2005).

Experiments:
[1] = oral administration
[2] = especially in its salt form

absorption from the gastrointestinal tract / bioavailability (in words) [1]: much improved bioavailability
solubility (in words) [2]: very soluble
SMILES: CC(C)[C@H](N)C(=O)OCCOCn1cnc2c(=O)[nH]c(N)nc21 [valaciclovir]
